The record followed here is patent publication US6562851B2, “Substituted bicyclic compounds” (Aventis Pharma Limited, priority 1999, dated 2003).

Broadly, the melting point is the temperature of the solid-liquid transition.

`Cc1ccccc1Nc1nc2cc(CC(=O)Nc3ccc(C(CC(=O)O)NC(=O)CCCC(=O)O)cc3)ccc2o1` (stereo not shown) [Example 4, 4-(2-Carboxy-1-{4-[2-(2-o-tolylamino-benzoxazol-5-yl)-acetylamino]-phenyl}-ethylcarbamoyl)-butyric Acid] came in with a melting point of 255.6 to 257.1 °C.
